The values that follow come from US20030064967A1 (priority 2001, published 2003).

“And” between values parts separate entries of the source, which are not always exact repeats. Identical values can stand only once.

The test system of data set [1] is human apo A-1 transgenic mice. Kind of data set: HDL cholesterol and human apoAI levels in human apo-A1 transgenic mice (InVivo II). Format: in vivo. The procedure:
The following assay was conducted to evaluate the effect of Compound A on HDL cholesterol levels in Human apo-A1 transgenic mice. Six-eight week old male human apo A-1 transgenic mice (catolog number JR 1927) were obtained from Jackson Labs. Upon arrival the mice were acclimated for three days on standard rodent diet and water ad libitum. Mice were then given a diet supplemented with 1.25% cholesterol, 7.5% cocoa butter and 0.5% sodium cholate for two weeks. Compound A was administered to the animals by gavage in methylcellulose at a dose of 150 mg/kg/d for two weeks concomitant with the high fat diet. At the end of the treatment period the mice were fasted overnight and then euthanized by CO2 inhalation. Blood was collected by cardiac puncture. Plasma was fractionated by fast phase liquid chromatography and cholesterol in the different lipoprotein fractions determined by an enzymatic assay. An ELISA was completed shoing an increase of h-apoAI of 65%.

Data set [2] deals with HepG2 cells. Kind of data set: Cell culture assay and ELISA for apoAI HDL increase in HepG2 cells. It is filed as cell-based, human. As to the method: A cell culture assay and ELISA was conducted to measure apoAi HDL increase in HepG2 cells were obtained from the American Type Culture Collection (Rockville, Md.). Fetal bovine serum (FBS) was purchased from Gibco Laboratories. Cells were cultured in minimum essential medium (MEM) containing 10% FBS, and 100 μg/mL of streptomycin, 100 unit/mL of penicillin, and 4 mM of glutamine (Gibco/BRL). Cells were grown for 2 days till they are 80% confluent in 6-well, or 12-well plates before studies. In all cases medium was changed every other day. To measure apoAI, 96-well microtiter plates were coated with a 1:1000 diluted mixture of three monoclonal antibodies against human apoAI (A05, A17, and A44) for 2 h and incubated in succession with HDL3 (0 to 15 ng/well), sheep polyclonal anti-apoAI serum (Boehringer Mannheim), alkaline phosphatase-labeled rabbit anti-sheep (Cappel), and p-nitrophenyl phosphate (1 mg/mL in 10 mmol/L ethanolamine, 0.5 mmol/L MgCl2, pH 9.5), for 2, 1 and 1 h respectively at 37° C. The plates were washed three times between different incubations. The absorbance at 405 nm was determined by using a Bio-Rad model 550 microplate reader (Bio-Rad).

In data set [3] the test system is hypercholesterolemic hamsters. Format: in vivo. As to the method: The following assay was conducted to HDL elevation in hamsters. Male Golden Syrian hamsters weighing 110-120 g were obtained from Charles River Laboratories (Wilmington, Mass.). Hamsters were housed individually with wood chip bedding and soft nesting material with lights on a 6 A.M. and off at 6 p.m. Upon arrival the hamsters were acclimated for three days on standard rodent chow and water (Purina rodent chow 5001) ad libitum. Prior to dosing, the hamsters were made hypercholesterolemic by feeding them a powdered diet supplemented with 0.5% cholesterol and 10% coconut oil (Harlan Teklad diet #97235) for one week. Water was added to the powdered chow to form a paste and the chow paste rolled into balls with each animal receiving 20 g of chow paste per day in stainless steel bowls. Chow intake was recorded daily. Body weights were recorded after one week and at the end of the end of the study. Hamsters were distributed into treatment groups after the one-week pretreatment period such that each group had similar average body weights.
Compounds were added to a high cholesterol chow paste and administered as an admixture at the same time each morning for two weeks. At the end of the treatment period the hamsters were fasted in the late afternoon on the day prior to blood collection. Fasting was achieved by transferring the hamsters to clean cages and removing chow stored in cheek pouches. Hamsters were anesthetized with ketamine/rompun solution. When unresponsive to toe pinch and still respiring, blood was collected via cardiac puncture from which plasma was separated and frozen at −80° C.
Lipoproteins were isolated from whole plasma by Fast Phase Liquid Chromatography (FPLC). Cholesterol and triglyceride concentrations in the different lipoprotein fractions were determined by enzymatic methods using a CX-5 chemical analyzer and standard Beckman reagents.
A Dunnetts test was used to compare the experimental and control groups. P<0.05: was considered significant.

For data set [4], the system named is HepG2 cells. Kind of data set: Uptake of 3[H]cholesteryl hexadecyl ether-labeled HDL in HepG2 cells. It is filed as cell-based. To be noted: for % 3[H]-CE uptake: 12.5 μM compound, 20-50 μg/mL 3[H]-CE HDL, 3.5 h, 37° C.; for clearance / selective uptake of cholesteryl ester: HepG2 cells. As to the method:
An in vitro assay was conducted to measure the uptake of ^3[H]cholesteryl Hexadecyl Ether-labeled HDL in HepG2 cells. ^3[H]cholesteryl Hexadecyl Ether-labeled HDL was prepared as described by Rodrigueza et al. (Rodrigueza W. V. et al. (1999) J. Biol. Chem. 274:20344-20350). 40 μCi of ^3[H]hexadecyl ether (40-60 Ci/mmol, NEN life Sciences Products) were incubated with 5 mg of HDL3 and 240 mg of heat-inactivated lipoprotein-deficient plasma, 0.01% aprotinin in a polypropylene tube sealed with nitrogen gas for 40 h at 37° C. according to the method of Terpstra et al . ^3[H]-CE enriched HDL was re-isolated by flotation ultracentrifugation and dialyzed against phosphate-buffered saline (PBS). To perform CE uptake studies, HepG2 cells, seeded in 6 or 12 well plates were grown for 2 days till 80% confluent and, then treated with compounds in 1% RSA-DMEM medium for 24 h. The next day, cells were treated with 12.5 μM compounds and 20-50 μg/mL of ^3[H]-CE HDL for 3.5 h at 37° C. After incubation, cells were washed 4 times with PBS/BSA and 2 times with PBS, followed by addition of 0.1 N NAOH. Cells were collected, and radioactivity was measured in counts per minute and expressed as percent of ^3[H]-CE delivered to cells.

For data set [5], the system named is HepG2 cells. The experiment in a line: Internalization and degradation of 125I-HDL3 by HepG2 cells. Format: cell-based. As to the method: In another aspect of the invention, compounds that increase the levels of plasma HDL holoproteins can be selected using the following process. First, the compound is added to a hepatic model, preferably hepatic cells, more preferably HepG2 cells. Labeled apoAI-HDL, preferably a radioactive isotope label, more preferably ^125I, in the presence or absence of compounds is then added to the cells. The […] labeled apoAI-HDL in the conditioned medium represents degraded labeled apoAI-HDL. After washing and detaching, cells are centrifuged. Labeled apoAI-HDL in the cellular fraction represents internalized HDL holoprotein; whereas, label in the supernatant represents cell surface bound apoAI-HDL that has been dissociated. Increased amounts of labeled HDL in cells treated with compounds versus cells not treated with compounds indicates increased degradation, internalization, or binding to the cell surface. Compounds are selected which […] the amount of apoAI-HDL label in the cellular fraction of the cells contacted with a test compound compared to the amount of label in the cellular fraction of the cells not contacted with the test compound.
In another aspect of the invention, compounds that increase the levels of plasma HDLc can be selected by contacting a hepatic model, preferably hepatic cells, more preferably HepG2 cells with test compounds. Labeled apoAI-HDL, preferably a radioactive isotope label, more preferably ^125I, in the presence or absence of compounds is then added to the cells. Label in the conditioned medium represents degraded labeled-HDL. After washing and detaching, cells are centrifuged. Label in the cellular fraction represents internalized HDL holoprotein; whereas, label in the supernatant represents cell surface bound apoAI-HDL that has been dissociated. Increased amounts of label in cells treated with compounds versus cells not treated with compounds indicates increased degradation, internalization, or binding of apoAI-HDL to the cell surface. […]

Data set [6] is classed as in vivo. Particulars: one study; 150 mg/kg/d by gavage in methylcellulose.
The subject of the next data set is apoAI. Kind of data set: Synthesis of apoAI.

For the compound `CC(C)(Sc1cc(C(C)(C)C)c(O)c(C(C)(C)C)c1)Sc1cc(C(C)(C)C)c(OC(=O)CCCC(=O)O)c(C(C)(C)C)c1` [Compound A, Pentanedioic Acid, mono[4-[[1-[[3,5-bis(1,1-dimethylethyl)-4-hydroxyphenyl]thio]-1-methylethyl]thio]-2,6-bis(1,1-dimethylethyl)phenyl]ester], the “increase of human apoAI (ELISA)” value in data set [1] (150 mg/kg/d by gavage, two weeks, high fat diet) is 64% and 65%. Moreover, the “increase in HDL cholesterol (FIG. 7)” value in data set [1] (hypercholesterolemic human apo-AI transgenic mice) is 71%. Further, in the data set on HepG2 cells [2], the “% increase apoAI HDL” value was 33%. In data set [3] (150 mg/kg/d, two weeks), the “HDLc elevation, range of three experiments” value is reported as 5-44%; the body weight entry is given as “all animals gained weight”; the tolerability result is recorded as “well tolerated”. Also, in data set [3] (average of three experiments, 150 mg/kg/d, two weeks, in chow), the “HDLc elevation compared to untreated controls” value amounted to 22%. In addition, the “LDLc reduction compared to controls” value in data set [3] (average, n=3, 150 mg/kg/d, two weeks) was found to be 29%. Also, in data set [3] (hypercholesterolemic hamsters), the “increase in HDL cholesterol levels (FIG. 1)” value amounted to 24%. In data set [3] (n=3, 150 mg/kg/d, two weeks), the “VLDL cholesterol reduction compared to controls” value is on record as 42%; the “VLDL cholesterol reduction, range” value is given as 22-53%; the “triglycerides reduction compared to controls” value is reported as 24%; the “triglycerides reduction, range” value is 7-33%. In the data set with HepG2 cells [4], the “% 3[H]-CE uptake” value was found to be 42% and the “clearance / selective uptake of cholesteryl ester” value is reported as “enhance the clearance of cholesteryl ester”. In the data set on HepG2 cells [5], the “degradation of 125I-HDL3” value is “decreases degradation” and the “internalization of 125I-HDL3 / HDL holoprotein uptake” value is on record as “decreases internalization”.
Take `CC(C)(Sc1cc(C(C)(C)C)c(O)c(C(C)(C)C)c1)Sc1cc(C(C)(C)C)c(OC(=O)CCCOS(=O)(=O)[O-])c(C(C)(C)C)c1.[Na+]` [Compound B, 4-[4-[1-[[3,5-bis(1,1-dimethylethyl)-4-hydroxyphenyl]thio]-1-methylethyl]-thio-2,6-bis-(1,1-dimethyl-ethyl)phenoxy]-4-oxo-1-butyl Sodium Sulfate]: the mortality result in data set [6] was “all of the mice died”. In addition, in the data set with HepG2 cells [2], the “% increase apoAI HDL” value was 26%. In addition, in the data set on HepG2 cells [4], the “% 3[H]-CE uptake” value was 44% and the “clearance / selective uptake of cholesteryl ester” value is on record as “enhance the clearance of cholesteryl ester”.
In the case of `CC(C)(Sc1cc(C(C)(C)C)c(O)c(C(C)(C)C)c1)Sc1cc(C(C)(C)C)c(OC(=O)COCC(=O)O)c(C(C)(C)C)c1` [Compound C, Carboxymethoxyacetic Acid, mono[4-[1-[[3,5-bis(1,1-dimethylethyl)-4-hydroxyphenyl]thio]-1-methyl-ethyl]-thio-2,6-bis(1,1-dimethylethyl)phenyl]ester], in the data set with HepG2 cells [2], the “% increase apoAI HDL” value is 47%.
For `COC(=O)CCCC(=O)Oc1c(C(C)(C)C)cc(SC(C)(C)Sc2cc(C(C)(C)C)c(O)c(C(C)(C)C)c2)cc1C(C)(C)C` [Compound D, Pentanedioic Acid, [4-[1-[[3,5-bis(1,1-dimethylethyl)-4-hydroxyphenyl]thio]-1-methylethyl]-thio-2,6-bis(1,1-dimethylethyl)phenyl], Methyl Ester], the “% increase apoAI HDL” value in the data set with HepG2 cells [2] is given as 27%.
Take `CC(C)(Sc1cc(C(C)(C)C)c(O)c(C(C)(C)C)c1)Sc1cc(C(C)(C)C)c(O)c(C(C)(C)C)c1` [Probucol, 4,4′-(isopropylidenedithio) bis(2,6-di-tert-butylphenol), reference compound]: in the data set with apoAI, the “effect on synthesis of apoAI” value is listed as “reduced the synthesis of apoAI”. For the same compound, the “% increase apoAI HDL” value with HepG2 cells [2] is reported as −21%. In addition, the “% 3[H]-CE uptake” value with HepG2 cells [4] was found to be 13%. Further, the “internalization of 125I-HDL3 / HDL holoprotein uptake” value in the data set with HepG2 cells [5] was “reduced HDL holoprotein uptake”.
